The text below walks through data of ChEMBL document CHEMBL1201862, “PubChem BioAssay data set” (2004).

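Assay format: 96-well plates, 48-hour exposure. GI50: concentration for 50% inhibition of growth.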 Active and inactive are the calls of the source. Cut-off read from the data, not from the text of the source: active = GI50 up to about 1.1 µM and inactive = higher.

Test systems include ACHN; COLO 205; HCT-15; HL-60; K562; LOX IMVI; Malme-3M; NCI-H226; NCI-H23; OVCAR-3; OVCAR-4; RXF 393; SF-268; SK-MEL-2; SNB-19; SW-620; UACC-62; SNB-75.
Test in all cases: NCI tumour cell line growth inhibition, 48 h

For the molecule `Cc1nc(=O)n2c(c1C(=O)Nc1ccc(Cl)cc1)NCCC2`, the GI50 in the experiment on ACHN was > 100 µM (inactive); with COLO 205, > 100 µM (inactive); with HCT-15, above 100 µM; with HL-60, > 100 µM (inactive); with K562, > 100 µM (inactive); with LOX IMVI, > 100 µM (inactive). For the same molecule, the GI50 in the experiment on Malme-3M, in the experiment on NCI-H226, in the experiment with NCI-H23, in the experiment with OVCAR-3, with OVCAR-4 and with RXF 393 was > 100 µM (inactive) in each case. The GI50 in the experiment with SF-268 was > 100 µM (inactive); in the experiment on SK-MEL-2, > 100 µM (inactive); in the experiment with SNB-19 it was 32 µM (inactive); in the experiment on SW-620, > 100 µM (inactive); with UACC-62, > 100 µM (inactive).

As for `C=CCC1[C@@H](C(C)(C)C(C(C)=O)C(=O)C(=O)OC)OC(C(C)(C)C)N1C(=O)OC` (some centres not stated), the GI50 in the experiment with ACHN was > 100 µM (inactive); with COLO 205, > 100 µM (inactive); with HCT-15, above 100 µM; in the experiment on K562, 40.6 µM (inactive); with Malme-3M, > 100 µM (inactive); with NCI-H226 it was 52.6 µM (inactive). Further, the GI50 in the experiment on NCI-H23, in the experiment with OVCAR-3, with OVCAR-4, in the experiment on RXF 393, in the experiment on SF-268 and in the experiment on SK-MEL-2 was > 100 µM (inactive) each time. The GI50 in the experiment on SNB-19 was > 100 µM (inactive); in the experiment on SNB-75, 80.4 µM (inactive); in the experiment with UACC-62, > 100 µM (inactive).

On to `Cc1cccc2c1Oc1cc(Cl)ccc1C2NC(=O)CN(C)C` (configuration not stated), for which the GI50 is 22.8 µM (inactive) in the experiment with ACHN; 33.5 µM (inactive) with COLO 205; 45.2 µM in the experiment on HCT-15; 17.1 µM (inactive) in the experiment with HL-60; 36 µM (inactive) in the experiment on K562; 42.6 µM (inactive) with LOX IMVI. Also, the GI50 is 99.8 µM (inactive) in the experiment on NCI-H226; 92 µM (inactive) in the experiment with NCI-H23; 53.5 µM (inactive) in the experiment on OVCAR-4; 26.5 µM (inactive) with RXF 393; 74.3 µM (inactive) with SF-268; 54 µM (inactive) in the experiment on SNB-19. Besides, the GI50 in the experiment on SNB-75 is 21.1 µM (inactive); in the experiment on SW-620, 66.4 µM (inactive); with UACC-62, 24.3 µM (inactive).

Turning to `O=C1C(c2ccccc2)=[N+]([O-])c2cc([N+](=O)[O-])c(/C(Cl)=C/c3ccccc3)cc21`, the GI50 with ACHN was 24.5 µM (inactive); in the experiment on COLO 205, 17.3 µM (inactive); in the experiment on HL-60, 4.06 µM (inactive); in the experiment on K562 it was 13.8 µM (inactive); with LOX IMVI, 13.7 µM (inactive); in the experiment on NCI-H226, 31.2 µM (inactive). Also, the GI50 is 22.7 µM (inactive) in the experiment with NCI-H23; 13.5 µM (inactive) in the experiment on OVCAR-3; 13.1 µM (inactive) in the experiment with OVCAR-4; 22.9 µM (inactive) in the experiment with RXF 393; 35.2 µM (inactive) in the experiment with SF-268; 31.3 µM (inactive) with SNB-19. For the same molecule, the GI50 is 31.4 µM (inactive) with SNB-75, 17.3 µM (inactive) with SW-620 and 30.6 µM (inactive) with UACC-62.

With `CC1C(=O)N(C)C2(CO)C(=O)O[C@H](C)C12O` (some centres not stated), the GI50 in the experiment on COLO 205 is > 100 µM (inactive); in the experiment on HCT-15 it was above 100 µM; with K562, > 100 µM (inactive); with Malme-3M it was > 100 µM (inactive); in the experiment with NCI-H23, > 100 µM (inactive); in the experiment with OVCAR-3 it was > 100 µM (inactive). The GI50 in the experiment with OVCAR-4, in the experiment on RXF 393, in the experiment on SF-268, in the experiment with SK-MEL-2, with SNB-19 and with UACC-62 was > 100 µM (inactive) each time.

Take `OCC1OC(c2nc(C3=NCCCN3)cs2)C(O)C1O` (configuration not stated): the GI50 with ACHN is > 100 µM (inactive); in the experiment on COLO 205, > 100 µM (inactive); in the experiment with HCT-15, above 100 µM; in the experiment with HL-60, > 100 µM (inactive); in the experiment with K562 it was > 100 µM (inactive); with LOX IMVI, > 100 µM (inactive). Also, the GI50 in the experiment on Malme-3M is > 100 µM (inactive); in the experiment on NCI-H226, > 100 µM (inactive); in the experiment with NCI-H23 it was > 100 µM (inactive); in the experiment on OVCAR-3, > 10 µM (inactive); with OVCAR-4, > 100 µM (inactive); in the experiment with SF-268 it was > 100 µM (inactive). In addition, the GI50 in the experiment with SK-MEL-2, with SNB-19, with SW-620 and with UACC-62 was > 100 µM (inactive) in each case.

In the case of `CC1(C(=O)O)CCOc2ccccc21` (configuration not stated), the GI50 in the experiment with ACHN is > 100 µM (inactive); with COLO 205, > 100 µM (inactive); in the experiment with HCT-15, above 100 µM; in the experiment on HL-60, > 100 µM (inactive); in the experiment with K562, > 100 µM (inactive); in the experiment on LOX IMVI it was > 100 µM (inactive). Moreover, the GI50 in the experiment on Malme-3M, with NCI-H226, in the experiment with NCI-H23, with OVCAR-3, in the experiment with OVCAR-4 and in the experiment with RXF 393 was > 100 µM (inactive) each time. Moreover, the GI50 with SF-268, with SNB-19, with SNB-75, in the experiment with SW-620 and with UACC-62 was > 100 µM (inactive) each time.

As for `CC(C)CCC[C@@H](C)[C@H]1CC[C@H]2[C@@H]3CC=C4CC(OCCCCN(O)CCCSC5OC(CO)C(O)C(O)C5O)CC[C@]4(C)[C@H]3CC[C@]12C` (some centres not stated), the GI50 is > 100 µM (inactive) in the experiment with ACHN; 25.6 µM (inactive) in the experiment on COLO 205; 43.4 µM in the experiment with HCT-15; 25.8 µM (inactive) with HL-60; 36.3 µM (inactive) in the experiment on K562; 21.8 µM (inactive) in the experiment with LOX IMVI. Besides, the GI50 in the experiment with NCI-H23 was 45.2 µM (inactive); with OVCAR-4 it was > 100 µM (inactive); in the experiment on RXF 393, 79.3 µM (inactive); in the experiment on SF-268 it was 52.7 µM (inactive); with SK-MEL-2, 17.4 µM (inactive); with SNB-19 it was > 100 µM (inactive). In addition, the GI50 with SNB-75 is 65.8 µM (inactive); in the experiment on SW-620 it was 22.6 µM (inactive); in the experiment on UACC-62, > 100 µM (inactive).

With `C=C1CCCC2OC(OC)CCC12` (configuration not stated), the GI50 is > 100 µM (inactive) with ACHN; > 100 µM (inactive) in the experiment with COLO 205; above 100 µM in the experiment with HCT-15; > 100 µM (inactive) in the experiment with HL-60; > 100 µM (inactive) with K562; > 100 µM (inactive) with Malme-3M. The GI50 in the experiment on NCI-H226, in the experiment with NCI-H23, in the experiment on OVCAR-3, in the experiment with OVCAR-4, in the experiment on RXF 393 and with SF-268 was > 100 µM (inactive) throughout. Also, the GI50 with SK-MEL-2, with SNB-19, in the experiment with SNB-75, in the experiment with SW-620 and with UACC-62 was > 100 µM (inactive) each time.

With `Cl[Si]1(Cl)Oc2ccccc2O[Si](Cl)(Cl)Oc2ccccc2O1`, the GI50 was 15.8 µM (inactive) in the experiment with ACHN; 13.8 µM (inactive) in the experiment on COLO 205; 21 µM in the experiment on HCT-15; 1.25 µM (inactive) with HL-60; 15.3 µM (inactive) in the experiment with K562; 9.14 µM (inactive) in the experiment on LOX IMVI. Also, the GI50 was 18.7 µM (inactive) in the experiment on Malme-3M; 38.5 µM (inactive) in the experiment with NCI-H226; 14.8 µM (inactive) in the experiment with NCI-H23; 21.7 µM (inactive) in the experiment on OVCAR-3; 11.8 µM (inactive) with OVCAR-4; 15 µM (inactive) in the experiment with SF-268. For the same molecule, the GI50 with SK-MEL-2 was 20.5 µM (inactive); in the experiment on SNB-19, 17.4 µM (inactive); with SNB-75, 19.9 µM (inactive); with SW-620, 15 µM (inactive); in the experiment with UACC-62, 5.08 µM (inactive).

Turning to `CCN1CCC(O)(/C=C/c2ccc(Cl)cc2)C(C(=O)/C=C/c2ccc(Cl)cc2)C1` (configuration not stated), the GI50 is 33 µM (inactive) in the experiment with ACHN; 71.4 µM (inactive) in the experiment with COLO 205; 21.7 µM in the experiment with HCT-15; 17.5 µM (inactive) with HL-60; 28.1 µM (inactive) with K562; 16.2 µM (inactive) with LOX IMVI. Also, the GI50 is > 100 µM (inactive) in the experiment with Malme-3M; 20.8 µM (inactive) with NCI-H226; 20.2 µM (inactive) with NCI-H23; 18.9 µM (inactive) in the experiment on OVCAR-3; 29.6 µM (inactive) with OVCAR-4; 30.4 µM (inactive) in the experiment on SF-268. Moreover, the GI50 in the experiment with SK-MEL-2 was 69.3 µM (inactive); in the experiment on SNB-19, 71.6 µM (inactive); with SNB-75 it was 33.9 µM (inactive); in the experiment with SW-620, 21.2 µM (inactive); with UACC-62 it was 17.3 µM (inactive).

With `C[P+]1(c2ccccc2)CCCCC1`, the GI50 in the experiment with ACHN was > 100 µM (inactive); in the experiment with COLO 205 it was > 100 µM (inactive); with HCT-15 it was above 100 µM; with K562, > 100 µM (inactive); with LOX IMVI, > 100 µM (inactive); with Malme-3M, > 100 µM (inactive). Besides, the GI50 in the experiment with NCI-H23, with OVCAR-3, with OVCAR-4, in the experiment on RXF 393, in the experiment on SF-268 and in the experiment on SK-MEL-2 was > 100 µM (inactive) in each case. Further, the GI50 in the experiment on SNB-19, in the experiment with SNB-75, with SW-620 and in the experiment with UACC-62 was > 100 µM (inactive) each time.

As for `COc1ccc(NC(=O)C2C(=O)N(c3ccc(OC)cc3)C(=O)/C2=N\N)cc1` (configuration not stated), the GI50 is > 100 µM (inactive) with ACHN; > 100 µM (inactive) in the experiment on COLO 205; above 100 µM in the experiment with HCT-15; > 100 µM (inactive) with HL-60; 65 µM (inactive) with K562; > 100 µM (inactive) in the experiment with Malme-3M. In addition, the GI50 in the experiment on NCI-H23 is > 100 µM (inactive); in the experiment with RXF 393, > 100 µM (inactive); with SF-268, > 100 µM (inactive); with SK-MEL-2, > 100 µM (inactive); in the experiment with SNB-19 it was 94.8 µM (inactive); in the experiment on SW-620, > 100 µM (inactive). The GI50 in the experiment with UACC-62 was > 100 µM (inactive).
